Consider 5 molecules from patent US11629171B2, “Beta-hairpin peptidomimetics” (POLYPHOR AG, priority 2017, dated 2023).

Common to all, as to format: cell-based
In data set [1] the test system is Acinetobacter baumannii 872842. As to conditions: 872842. An outline of the steps:
(§1)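 CLSI broth microdilution: inoculum ~10^6 CFU/mL in cation-adjusted Mueller-Hinton II broth, with peptide in serial two-fold dilutions plus Polysorbate 80 (0.002% final). MIC (μg/mL) is the lowest concentration without visible growth after 18-20 hours at 35° C.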

The subject of data set [2] is Acinetobacter baumannii DSM 30008. As to conditions: DSM 30008. An outline of the steps:
as §1

The test system of data set [3] is Enterobacter cloacae 848840. As to conditions: 848840. An outline of the steps: as §1
A further data set has as its system Escherichia coli 926415. The settings on record: 926415. Summed up:
as §1

For data set [4], the system named is Escherichia coli ATCC 25922. As to conditions: ATCC 25922. An outline of the steps: as §1
In data set [5] the test system is Klebsiella pneumoniae 968733. As to conditions: 968733. An outline of the steps: as §1
The test system of data set [6] is Klebsiella pneumoniae SSI #3010. The settings on record: SSI #3010. An outline of the steps: as §1
Data set [7] deals with Pseudomonas aeruginosa ATCC 27853. The settings on record: ATCC 27853. An outline of the steps:
as §1

Data set [8] has as its system human red blood cells (hRBC). Put plainly: Hemolysis. The settings on record: red cells of human, 1 h, 200. An outline of the steps:
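Read-out is supernatant absorbance at 540 nm, normalised to full lysis by 2% Triton X-100 and zero lysis by PBS with 10% water. Peptides (200 μg/mL) were exposed to 20% v/v washed human erythrocytes at 37° C for 1 h under shaking.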

Converted amounts (≈) assume the structure as drawn. Where a SMILES comes first, the peptide text is derived from it. Bridges are numbered along the chain shown (N, C = ends). Roman numbers before positions name the chains, in order. [ ]: non-standard residue; d: D form. Thr(ol) = C[C@@H](O)[C@H](N)CO; Tle = CC(C)(C)[C@H](N)C(=O)O; Hiv = CC(C)[C@H](O)C(=O)O; dDab = NCC[C@@H](N)C(=O)O; Orn = NCCC[C@H](N)C(=O)O; Dab = NCC[C@H](N)C(=O)O; Dap = NC[C@H](N)C(=O)O Some results are limits rather than exact numbers.

In the case of `CC(=O)N[C@@H](CCN)C(=O)N[C@H](C(=O)N[C@H](C(=O)N[C@@H](Cc1ccc(O)cc1)C(=O)N[C@@H](CN)C(=O)N[C@@H](CCC(=O)N[C@@H](CCN)C(=O)N[C@H](C(=O)N[C@@H](CN)C(=O)N[C@H]1CCNC(=O)[C@H]([C@@H](C)O)NC(=O)[C@H](CCN)NC(=O)[C@H](CCN)NC(=O)[C@H](CC(C)C)NC(=O)[C@@H](CC(C)C)NC(=O)[C@H](CCN)NC1=O)[C@@H](C)O)C(=O)N[C@H](CCN)C(=O)N[C@@H](CO)C(=O)N[C@@H](Cc1c[nH]c2ccccc12)C(=O)N[C@@H](CO)C(=O)N[C@H](C(=O)N[C@@H](CO)C(=O)N[C@H](C(=O)N[C@@H](CCC(=O)O)C(N)=O)C(C)C)C(C)(C)C)[C@@H](C)O)C(C)C` [Ex. 249] (I: Ac-[Dab]VTY[Dap]E[dDab]SWS[Tle]SVE-NH2 / II: [Dab]T[Dap][Dab][Dab][dL]L[Dab][Dab]T; amide I:6-II:N; lactam II:4-II:C), the MIC – broadly, the lowest concentration that inhibits growth of the organism – in data set [1] was 0.03125 mg/L (≈ 0.0119 µM); in [2] it was 0.03125 mg/L (≈ 0.0119 µM); in data set [3], 0.125 mg/L (≈ 0.0476 µM); in the data set on Escherichia coli 926415, 0.125 mg/L (≈ 0.0476 µM); in data set [4] it was 0.03125 mg/L (≈ 0.0119 µM); in data set [5] it was 0.25 mg/L (≈ 0.0953 µM). Besides, the MIC in [6] is 0.0625 mg/L (≈ 0.0238 µM); in [7] it was 0.125 mg/L (≈ 0.0476 µM). Besides, in data set [8], the “Hemolysis at 200 μg/mL” value amounted to 2%.
As to `CC(C)C[C@@H]1NC(=O)[C@@H](CC(C)C)NC(=O)[C@H](CCN)NC(=O)[C@@H](NC(=O)[C@H](CN)NC(=O)[C@@H](NC(=O)[C@H](CCN)NC(=O)CC[C@H]2NC(=O)[C@H](CCCN)NC(=O)[C@@H](NC(=O)[C@H](Cc3ccc(O)cc3)NC(=O)[C@@H](NC(=O)[C@@H](O)C(C)C)[C@@H](C)O)CSSC[C@@H](C(=O)N[C@H](C(=O)N[C@@H](C)C(=O)N[C@H](CO)[C@@H](C)O)C(C)(C)C)NC(=O)[C@H](Cc3c[nH]c4ccccc34)NC(=O)[C@H]([C@@H](C)O)NC2=O)[C@@H](C)O)CCNC(=O)[C@H]([C@@H](C)O)NC(=O)[C@H](CCN)NC(=O)[C@H](CCN)NC1=O` [Ex. 210] (I: H-[Hiv]TYC[Orn][dE]TWC[Tle]A[Thr(ol)] / II: [Dab]T[Dap][Dab][Dab][dL]L[Dab][Dab]T; disulfide I:4-I:9; amide I:6-II:N; lactam II:4-II:C), the MIC amounted to 0.5 mg/L (≈ 0.21 µM) in [1]; 0.25 mg/L (≈ 0.105 µM) in [2]; 2 mg/L (≈ 0.838 µM) in data set [3]; 2 mg/L (≈ 0.838 µM) against Escherichia coli 926415; 0.125 mg/L (≈ 0.0524 µM) in data set [4]; 2 mg/L (≈ 0.838 µM) in data set [5]. Further, the MIC in [6] and in data set [7] was 0.25 mg/L (≈ 0.105 µM) each time. Besides, the “Hemolysis at 200 μg/mL” value in data set [8] is recorded as <1%.
As to `CC(=O)N[C@H](C(=O)N[C@H]1CCCNC(=O)[C@@H]([C@H](C)O)NC(=O)[C@H](C(C)(C)C)NC(=O)[C@H](CO)NC(=O)[C@H](Cc2c[nH]c3ccccc23)NC(=O)[C@H](CO)NC(=O)[C@@H](CCN)NC(=O)[C@H](CCC(=O)N[C@@H](CCN)C(=O)N[C@H](C(=O)N[C@@H](CN)C(=O)N[C@H]2CCNC(=O)[C@H]([C@@H](C)O)NC(=O)[C@H](CCN)NC(=O)[C@H](CCN)NC(=O)[C@H](CC(C)C)NC(=O)[C@@H](CC(C)C)NC(=O)[C@H](CCN)NC2=O)[C@@H](C)O)NC(=O)[C@H](CO)NC(=O)[C@H](Cc2ccc(O)cc2)NC1=O)C(C)C` [Ex. 23] (I: Ac-V[Orn]YSE[dDab]SWS[Tle][dT] / II: [Dab]T[Dap][Dab][Dab][dL]L[Dab][Dab]T; lactam I:2-I:C, II:4-II:C; amide I:5-II:N), the MIC amounted to 0.25 mg/L (≈ 0.108 µM) in data set [1]; 0.0625 mg/L (≈ 0.0271 µM) in data set [2]; 0.125 mg/L (≈ 0.0542 µM) in [3]; 0.5 mg/L (≈ 0.217 µM) against Escherichia coli 926415; 0.0625 mg/L (≈ 0.0271 µM) in data set [4]; 0.5 mg/L (≈ 0.217 µM) in [5]. In addition, the MIC in data set [6] came out at 0.125 mg/L (≈ 0.0542 µM); in data set [7], 0.25 mg/L (≈ 0.108 µM). Besides, the “Hemolysis at 200 μg/mL” value in data set [8] is <1%.
Turning to `CC(=O)N[C@H](C(=O)N[C@H]1CSSC[C@@H](C(=O)N[C@@H](CO)C(N)=O)NC(=O)[C@H](C(C)(C)C)NC(=O)[C@H](CO)NC(=O)[C@H](Cc2c[nH]c3ccccc23)NC(=O)[C@H](CCN)NC(=O)[C@@H](CCN)NC(=O)[C@H](CCC(=O)N[C@@H](CCN)C(=O)N[C@H](C(=O)N[C@@H](CN)C(=O)N[C@H]2CCNC(=O)[C@H]([C@@H](C)O)NC(=O)[C@H](CCN)NC(=O)[C@H](CCN)NC(=O)[C@H](CC(C)C)NC(=O)[C@@H](CC(C)C)NC(=O)[C@H](CCN)NC2=O)[C@@H](C)O)NC(=O)[C@H](CN)NC(=O)[C@H](Cc2ccc(O)cc2)NC1=O)C(C)C` [Ex. 120] (I: Ac-VCY[Dap]E[dDab][Dab]WS[Tle]CS-NH2 / II: [Dab]T[Dap][Dab][Dab][dL]L[Dab][Dab]T; disulfide I:2-I:11; amide I:5-II:N; lactam II:4-II:C), the MIC in [1] turned out to be 0.0625 mg/L (≈ 0.0259 µM); in data set [2] it was 0.0625 mg/L (≈ 0.0259 µM); in data set [3], 0.25 mg/L (≈ 0.104 µM); with Escherichia coli 926415, 0.0625 mg/L (≈ 0.0259 µM); in [4], 0.125 mg/L (≈ 0.0518 µM); in [5] it was 0.125 mg/L (≈ 0.0518 µM). Further, the MIC in data set [6] stood at 0.0625 mg/L (≈ 0.0259 µM); in [7] it was 0.125 mg/L (≈ 0.0518 µM). Further, the “Hemolysis at 200 μg/mL” value in data set [8] amounted to 1%.
On to `CC(=O)N[C@H](C(=O)N[C@H]1CSSC[C@@H](C(=O)N[C@@H](CO)C(N)=O)NC(=O)[C@H](C(C)C)NC(=O)[C@H](CO)NC(=O)[C@H](Cc2c[nH]c3ccccc23)NC(=O)[C@H](CCC(=O)N[C@@H](CCN)C(=O)N[C@H](C(=O)N[C@@H](CN)C(=O)N[C@H]2CCNC(=O)[C@H]([C@@H](C)O)NC(=O)[C@H](CCN)NC(=O)[C@H](CCN)NC(=O)[C@H](CC(C)C)NC(=O)[C@@H](CC(C)C)NC(=O)[C@H](CCN)NC2=O)[C@@H](C)O)NC(=O)[C@@H](CCN)NC(=O)[C@H](CCCN)NC(=O)[C@H](CO)NC(=O)[C@H](Cc2ccc(O)cc2)NC1=O)C(C)C` [Ex. 354] (I: Ac-VCYS[Orn][dDab]EWSVCS-NH2 / II: [Dab]T[Dap][Dab][Dab][dL]L[Dab][Dab]T; disulfide I:2-I:11; amide I:7-II:N; lactam II:4-II:C), for which the MIC in [1] came to 0.0625 mg/L (≈ 0.0259 µM); in data set [3] it was 0.125 mg/L (≈ 0.0518 µM); in the data set on Escherichia coli 926415, 0.5 mg/L (≈ 0.207 µM); in [5], 0.25 mg/L (≈ 0.104 µM). Besides, in data set [2], the “Acinetobacter baumannii DSM 30008 MIC” value came to 0.03125 mg/L. The “Escherichia coli ATCC 25922 MIC” value in data set [4] came out at 0.0625 mg/L. Further, the “Klebsiella pneumoniae SSI #3010 MIC” value in [6] is 0.0625 mg/L. The “Pseudomonas aeruginosa ATCC 27853 MIC” value in data set [7] worked out at 0.125 mg/L. In [8], the “Hemolysis at 200 μg/mL” value is given as 1%.
